Like-named read-outs stand apart in the source and are kept apart here.
How the values were obtained:
SARS-CoV-2 3CLpro = SARS-CoV-2 3CLpro (Severe acute respiratory syndrome coronavirus 2, UniProt P0DTD1); assay: biochemical
HCoV-229E 3CLpro = HCoV-229E 3CLpro (Human coronavirus 229E, UniProt P0C6X1); assay: HCoV-229E 3CLpro inhibition assay (FRET); assay type: biochemical
MERS-CoV 3CLpro = MERS-CoV 3CLpro (Middle East respiratory syndrome-related coronavirus, UniProt K9N7C7); assay: biochemical
Chain of MERS-CoV 3CLpro (K9N7C7 3248-3553): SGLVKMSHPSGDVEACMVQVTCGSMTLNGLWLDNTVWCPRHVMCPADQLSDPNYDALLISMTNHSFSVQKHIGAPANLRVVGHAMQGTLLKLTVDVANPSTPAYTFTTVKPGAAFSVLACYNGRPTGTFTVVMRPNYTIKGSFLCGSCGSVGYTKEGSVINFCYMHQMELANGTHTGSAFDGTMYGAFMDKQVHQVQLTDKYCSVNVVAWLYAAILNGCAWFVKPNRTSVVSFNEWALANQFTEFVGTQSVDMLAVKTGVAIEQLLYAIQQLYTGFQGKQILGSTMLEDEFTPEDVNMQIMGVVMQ

SARS-CoV 3CLpro = SARS-CoV 3CLpro (Severe acute respiratory syndrome coronavirus, UniProt P0C6X7); assay: biochemical

Chain of HCoV-229E 3CLpro (P0C6X1 2966-3267): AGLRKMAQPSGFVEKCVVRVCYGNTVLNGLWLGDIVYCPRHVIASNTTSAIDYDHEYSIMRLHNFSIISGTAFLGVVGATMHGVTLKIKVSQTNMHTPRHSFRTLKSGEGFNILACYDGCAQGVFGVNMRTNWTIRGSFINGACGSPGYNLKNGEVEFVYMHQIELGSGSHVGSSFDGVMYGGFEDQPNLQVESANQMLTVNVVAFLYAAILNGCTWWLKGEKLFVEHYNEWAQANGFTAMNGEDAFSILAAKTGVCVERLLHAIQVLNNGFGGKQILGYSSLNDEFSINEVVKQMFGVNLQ

| SMILES | IC50 (SARS-CoV-2 3CLpro) [µM] | IC50 (HCoV-229E 3CLpro) [µM] | IC50 (MERS-CoV 3CLpro) [µM] | IC50 (SARS-CoV 3CLpro) [µM] | IC50 (SARS-CoV-2 3CLpro; read-out: IC50 in SARS-CoV-2 3CLpro assay) [µM] |
| --- | --- | --- | --- | --- | --- |
| CC1(C)[C@@H]2[C@@H](C(=O)NN(C[C@@H]3CCNC3=O)C(=O)[C@H](F)Cl)N(C(=O)Cc3cc(C(F)(F)F)cc(C(F)(F)F)c3)C[C@@H]21 [Example 178, (1R,2S,5S)-3-[2-[3,5-bis(trifluoromethyl)phenyl]acetyl]-N′-[(2R)-2-chloro-2-fluoro-acetyl]-6,6-dimethyl-N′—[[(3S)-2-oxopyrrolidin-3-yl]methyl]-3-azabicyclo[3.1.0]hexane-2-carbohydrazide] | 0.148 | 0.065 | 0.264 | 0.259 |  |
| CC1(C)[C@@H]2[C@@H](C(=O)NN(C[C@@H]3CCNC3=O)C(=O)[C@H](F)Cl)N(C(=O)c3cc(F)cc(C(F)(F)F)c3)C[C@@H]21 [Example 179, (1R,2S,5S)—N′-[(2R)-2-chloro-2-fluoro-acetyl]-3-[3-fluoro-5-(trifluoromethyl)benzoyl]-6,6-dimethyl-N′—[[(3S)-2-oxopyrrolidin-3-yl]methyl]-3-azabicyclo[3.1.0]hexane-2-carbohydrazide] | 0.201 | 0.093 | 0.315 | 0.222 |  |
| CC1(C)[C@@H]2[C@@H](C(=O)NN(C[C@@H]3CCNC3=O)C(=O)[C@H](F)Cl)N(C(=O)/C=C/c3cc(C(F)(F)F)cc(C(F)(F)F)c3)C[C@@H]21 [Example 180, (1R,2S,5S)-3-[(E)-3-[3,5-bis(trifluoromethyl)phenyl]prop-2-enoyl]-N′-[(2R)-2-chloro-2-fluoro-acetyl]-6,6-dimethyl-N′—[[(3S)-2-oxopyrrolidin-3-yl]methyl]-3-azabicyclo[3.1.0]hexane-2-carbohydrazide] | 0.491 | 0.241 | 0.657 | 0.786 |  |
| CC1(C)[C@@H]2[C@@H](C(=O)NN(C[C@@H]3CCNC3=O)C(=O)[C@H](F)Cl)N(C(=O)/C=C/c3cc(F)cc(F)c3)C[C@@H]21 [Example 181, (1R,2S,5S)—N′-[(2R)-2-chloro-2-fluoro-acetyl]-3-[(E)-3-(3,5-difluorophenyl)prop-2-enoyl]-6,6-dimethyl-N′—[[(3S)-2-oxopyrrolidin-3-yl]methyl]-3-azabicyclo[3.1.0]hexane-2-carbohydrazide] | 0.208 | 0.048 | 0.363 | 0.252 |  |
| CC(C)(C)[C@H](Nc1cc(F)ncn1)C(=O)N1C[C@@H]2CCC[C@@H]2[C@H]1C(=O)NN(C[C@@H]1CCNC1=O)C(=O)[C@H](F)Cl [Example 182] | 0.011 | 0.037 | 0.089 | 0.012 |  |
| CC(C)(C)[C@H](Nc1ncncc1F)C(=O)N1C[C@@H]2CCC[C@@H]2[C@H]1C(=O)NN(C[C@@H]1CCNC1=O)C(=O)[C@H](F)Cl [Example 183] | 0.011 | 0.059 | 0.174 | 0.016 |  |
| CC(C)(C)[C@H](Nc1ccccn1)C(=O)N1C[C@@H]2CCC[C@@H]2[C@H]1C(=O)NN(C[C@@H]1CCNC1=O)C(=O)[C@H](F)Cl [Example 184] | 0.016 | 0.086 | 0.275 | 0.041 |  |
| CC[C@H](C)[C@H](NC(=O)[C@H](F)Cl)C(=O)N1C[C@H]2[C@@H]([C@H]1C(=O)NN(C[C@@H]1CCNC1=O)C(=O)[C@H](F)Cl)C2(C)C [Example 185, (2R)-2-chloro-N-[(1S,2S)-1-[(1R,2S,5S)-2-[[[(2R)-2-chloro-2-fluoro-acetyl]-[[(3S)-2-oxopyrrolidin-3-yl]methyl]amino]carbamoyl]-6,6-dimethyl-3-azabicyclo[3.1.0]hexane-3-carbonyl]-2-methyl-butyl]-2-fluoro-acetamide] | 0.011 | 0.04 | 0.099 | 0.021 |  |
| CC[C@H](C)[C@H](NC(=O)[C@@H](F)Cl)C(=O)N1C[C@H]2[C@@H]([C@H]1C(=O)NN(C[C@@H]1CCNC1=O)C(=O)[C@@H](F)Cl)C2(C)C [Example 186, (2S)-2-chloro-N-[(1S,2S)-1-[(1R,2S,5S)-2-[[[(2S)-2-chloro-2-fluoro-acetyl]-[[(3S)-2-oxopyrrolidin-3-yl]methyl]amino]carbamoyl]-6,6-dimethyl-3-azabicyclo[3.1.0]hexane-3-carbonyl]-2-methyl-butyl]-2-fluoro-acetamide] | 0.013 | 0.049 | 0.069 | 0.023 |  |
| CC[C@H](C)[C@H](NC(=O)[C@@H](F)Cl)C(=O)N1CC(C)(C)C[C@H]1C(=O)NN(C[C@@H]1CCNC1=O)C(=O)[C@@H](F)Cl [Example 187, (2S)-2-chloro-N-[(1S,2S)-1-[(2S)-2-[[[(2S)-2-chloro-2-fluoro-acetyl]-[[(3S)-2-oxopyrrolidin-3-yl]methyl]amino]carbamoyl]-4,4-dimethyl-pyrrolidine-1-carbonyl]-2-methyl-butyl]-2-fluoro-acetamide] | 0.024 | 0.036 | 0.167 | 0.043 |  |
| CC[C@H](C)[C@H](NC(=O)[C@H](F)Cl)C(=O)N1C[C@H]2[C@@H]([C@H]1C(=O)NN(C[C@@H]1CCCNC1=O)C(=O)[C@H](F)Cl)C2(C)C [Example 188, (2R)-2-chloro-N-[(1S,2S)-1-[(1R,2S,5S)-2-[[[(2R)-2-chloro-2-fluoro-acetyl]-[[(3S)-2-oxo-3-piperidyl]methyl]amino]carbamoyl]-6,6-dimethyl-3-azabicyclo[3.1.0]hexane-3-carbonyl]-2-methyl-butyl]-2-fluoro-acetamide] | 0.008 | 0.026 | 0.068 | 0.012 |  |
| CC[C@H](C)[C@H](NC(=O)[C@@H](F)Cl)C(=O)N1C[C@H]2[C@@H]([C@H]1C(=O)NN(C[C@@H]1CCCNC1=O)C(=O)[C@@H](F)Cl)C2(C)C [Example 189, (2S)-2-chloro-N-[(1S,2S)-1-[(1R,2S,5S)-2-[[[(2S)-2-chloro-2-fluoro-acetyl]-[[(3S)-2-oxo-3-piperidyl]methyl]amino]carbamoyl]-6,6-dimethyl-3-azabicyclo[3.1.0]hexane-3-carbonyl]-2-methyl-butyl]-2-fluoro-acetamide] | 0.008 | 0.024 | 0.05 | 0.01 |  |
| CC[C@H](C)[C@H](NC(=O)[C@H](F)Cl)C(=O)N1C[C@@H]2CCC[C@@H]2[C@H]1C(=O)NN(C[C@@H]1CCCNC1=O)C(=O)[C@H](F)Cl [Example 190, (2R)—N-[(1S,2S)-1-[(3S,3aS,6aR)-3-[[[(2R)-2-chloro-2-fluoro-acetyl]-[[(3S)-2-oxo-3-piperidyl]methyl]amino]carbamoyl]-3,3a,4,5,6,6a-hexahydro-1H-cyclopenta[c]pyrrole-2-carbonyl]-2-methyl-butyl]-2-chloro-2-fluoro-acetamide] | 0.008 | 0.029 | 0.059 | 0.011 |  |
| CC[C@H](C)[C@H](NC(=O)[C@@H](F)Cl)C(=O)N1C[C@@H]2CCC[C@@H]2[C@H]1C(=O)NN(C[C@@H]1CCCNC1=O)C(=O)[C@@H](F)Cl [Example 191, (2S)—N-[(1S,2S)-1-[(3S,3aS,6aR)-3-[[[(2S)-2-chloro-2-fluoro-acetyl]-[[(3S)-2-oxo-3-piperidyl]methyl]amino]carbamoyl]-3,3a,4,5,6,6a-hexahydro-1H-cyclopenta[c]pyrrole-2-carbonyl]-2-methyl-butyl]-2-chloro-2-fluoro-acetamide] |  | 0.027 | 0.049 | 0.011 | 0.007 |

— US20250059171A1 (Hoffmann-La Roche Inc., priority 2021, published 2025)
